The numbers were not newly measured in patent US20170196794A1, “Oral Composition” (Kao Corporation, priority 2014, published 2017), which cites them from elsewhere.

The conditions of this data set: 20° C.
For `OC[C@@H](O)[C@@H](O)[C@H](O)[C@H](O)CO` [mannitol], the solubility in water is reported as 18 % by mass.
With `OC[C@@H](O)[C@@H](O[C@H]1O[C@H](CO)[C@@H](O)[C@H](O)[C@H]1O)[C@H](O)[C@@H](O)CO` [maltitol], the solubility in water is 60 % by mass.
For the compound `OC[C@@H](O)[C@@H](O)CO` [erythritol], the solubility in water is reported as 33 % by mass.
In the case of `OC[C@@H](O)[C@@H](O)[C@H](O)[C@@H](O)CO` [sorbitol], the solubility in water was 72 % by mass.
Take `OC[C@@H](O)[C@H](O)[C@@H](O)CO` [xylitol]: the solubility in water is reported as 66 % by mass.
